Data from patent publication US4450269A, “Mono-5-substituted-3-chloro-4H-1,2,6-thiadiazin-4-one antifungal agents” (FMC Corporation, priority 1980, dated 1984).
Structures can show the parent of a compound that is named as a salt.

What was measured:
Venturia inaequalis = assay: Spore germination test; type: cell-based; settings: VI, 48 hours
Description: VI = Venturia inaequalis
The test chemical was dissolved or suspended in acetone in an amount such that 0.8 ml of the resulting suspension or solution, mixed with 40 ml water agar produced a water agar solution containing 40, 10, 2.5 and 1 ppm of test chemical. The resulting agar solution, at 50° C., was then divided equally between two sterile petri dishes, each having four separated quadrants, and allowed to solidify. […] quadrants of each dish were flooded with 0.1 ml of a spore suspension in sterile water. Spores of two pathogens, Erysiphe polygoni and Uromyes phaseoli, from infected plant leaves, were brushed on the remaining two quadrants. The tests were then incubated 48 hours, at 24° C.
Readings were then taken and the percentage of germinated spores calculated. From this percentage, a spore germination rating was assigned as follows: […]

Pythium ultimum = assay: Mycelial growth test; type: cell-based; settings: PU; for Percent Fungus Growth Inhibition: 72 hours; for inhibition at 5 ppm / inhibition at 10 ppm / inhibition at 20 ppm / inhibition at 40 ppm: Globisporangium ultimum, 72 h, read-out: Percent Fungus Growth Inhibition
Uromyces phaseoli = assay: whole plant or invertebrate; settings: foliar, 24 h, read-out: Percent Disease Control, curative, bean rust

| Compound | Spore Germination Rating (Venturia inaequalis; 1.0 ppm) | Spore Germination Rating (Venturia inaequalis; 2.5 ppm) | Spore Germination Rating (Venturia inaequalis; 10 ppm) | Spore Germination Rating (Venturia inaequalis; 40 ppm) | Percent Fungus Growth Inhibition (Pythium ultimum; 5 ppm) | Percent Fungus Growth Inhibition (Pythium ultimum; 10 ppm) | Percent Fungus Growth Inhibition (Pythium ultimum; 20 ppm) | Percent Fungus Growth Inhibition (Pythium ultimum; 40 ppm) | pest or weed control at 150 ppm (Uromyces phaseoli) | inhibition at 5 ppm (Pythium ultimum; 5 ppm) | inhibition at 10 ppm (Pythium ultimum; 10 ppm) | inhibition at 20 ppm (Pythium ultimum; 20 ppm) | inhibition at 40 ppm (Pythium ultimum; 40 ppm) | Spore Germination Rating (Venturia inaequalis; 1.0 ppm, hydrochloride) | Spore Germination Rating (Venturia inaequalis; 2.5 ppm, hydrochloride) | Spore Germination Rating (Venturia inaequalis; 10 ppm, hydrochloride) | Spore Germination Rating (Venturia inaequalis; 40 ppm, hydrochloride) | Percent Fungus Growth Inhibition (Pythium ultimum; 20 ppm, hydrochloride) | Percent Fungus Growth Inhibition (Pythium ultimum; 40 ppm, hydrochloride) |
| --- | --- | --- | --- | --- | --- | --- | --- | --- | --- | --- | --- | --- | --- | --- | --- | --- | --- | --- | --- |
| 3-chloro-5-(bromophenoxy)-4H-1,2,6-thiadiazin-4-one [Compound 33] | 0 (0-10) | 0 (0-10) | 0 (0-10) | 0 (0-10) | 69% | 87% | 96% | 100% |  |  |  |  |  |  |  |  |  |  |  |
| 3-chloro-5-[methylaminocarbonyloxy)phenoxyl]-4H-1,2,6-thiadiazin-4-one [Compound 36] |  |  |  |  | 0% | 42% | 100% | 100% |  |  |  |  |  |  |  |  |  |  |  |
| O=c1c(Cl)nsnc1Oc1ccccc1 [Compound 2, 3-chloro-5-phenoxy-4H--1,2,6-thiadiazin-4-one] | 4 (80-100) | 2 (40-60) | 0 (0-10) | 0 (0-10) |  |  |  |  | 0% | 0% | 42% | 100% | 100% |  |  |  |  |  |  |
| Cc1ccc(Oc2nsnc(Cl)c2=O)cc1 [Compound 3, 3-chloro-5-(4-methylphenoxy)-4H--1,2,6-thiadiazin-4-one] | 4 (80-100) | 4 (80-100) | 0 (0-10) | 0 (0-10) |  |  |  |  | 0% | 20% | 100% | 100% | 100% |  |  |  |  |  |  |
| CC(C)(C)c1ccc(Oc2nsnc(Cl)c2=O)cc1 [Compound 4, 3-chloro-5-(4-tert-butylphnoxy)-4H--1,2,6-thiadiazin-4-one] | 4 (80-100) | 4 (80-100) | 0 (0-10) | 0 (0-10) |  |  |  |  | 75% | 0% | 20% | 0% | 0% |  |  |  |  |  |  |
| COc1ccc(Oc2nsnc(Cl)c2=O)cc1 [Compound 5, 3-chloro-5-(4-methoxyphenoxy)4H--1,2,6-thiadiazin-4-one] | 3 (60-80) | 0 (0-10) | 0 (0-10) | 0 (0-10) |  |  |  |  | 0% | 0% | 42% | 76% | 100% |  |  |  |  |  |  |
| CCCCOc1ccc(Oc2nsnc(Cl)c2=O)cc1 [Compound 6, 3-chloro-5-(4-n-butoxyphenoxy)-4H--1,2,6-thiadiazin-4-one] | 1 (10-40) | 0 (0-10) | 0 (0-10) | 0 (0-10) |  |  |  |  | 90% | 0% | 0% | 0% | 22% |  |  |  |  |  |  |
| CCOC(=O)c1ccc(Oc2nsnc(Cl)c2=O)cc1 [Compound 7, 3-chloro-5-(4-ethoxycarbonylphenoxy)-4H--1,2,6-thiadiazin-4-one] | 0 (0-10) | 0 (0-10) | 0 (0-10) | 0 (0-10) |  |  |  |  | 0% | 11% | 29% | 80% | 100% |  |  |  |  |  |  |
| CC(=O)Nc1ccc(Oc2nsnc(Cl)c2=O)cc1 [Compound 8, 5-(4-acetylaminophenoxy)-3-chloro-4H--1,2,6-thiadiazin-4-one] | 4 (80-100) | 3 (60-80) | 2 (40-60) | 0 (0-10) |  |  |  |  | 0% | 0% | 100% | 100% | 100% |  |  |  |  |  |  |
| O=c1c(Cl)nsnc1Oc1ccc([N+](=O)[O-])cc1 [Compound 9, 3-chloro-5-(4-nitrophenoxy)-4H--1,2,6-thiadiazin-4-one] | 0 (0-10) | 0 (0-10) | 0 (0-10) | 0 (0-10) |  |  |  |  | 0% | 0% | 80% | 71% | 100% |  |  |  |  |  |  |
| Nc1ccc(Oc2nsnc(Cl)c2=O)cc1 [Compound 27, 5-(4-aminophenoxy)-3-chloro-4H--1,2,6-thiadiazine-4-one hydrochloride] |  |  |  |  |  |  |  |  |  |  |  |  |  | 0 (0-10) | 0 (0-10) | 0 (0-10) | 0 (0-10) | 0% | 80% |
| O=C(Nc1ccccc1)Oc1ccc(Oc2nsnc(Cl)c2=O)cc1 [Compound 37, 3-chloro-5-[4-(phenylaminocarbonyloxy)phenoxy]-4H-1,2,6,-thiadiazin-4-one] |  |  |  |  |  |  |  |  | 0% | 100% | 0% | 20% | 100% |  |  |  |  |  |  |
| O=C(OCc1ccccc1)Oc1ccc(Oc2nsnc(Cl)c2=O)cc1 [Compound 38, 3-chloro-5-[4-(phenylmethoxycarbonyloxy)phenoxyl]-4H-1,2,6-thiadiazin-4-one] |  |  |  |  |  |  |  |  | 100% | 0% | 0% | 0% | 0% |  |  |  |  |  |  |
| CSc1ccc(Oc2nsnc(Cl)c2=O)cc1 [Compound 39, 3-chloro-5-[(4-methylthio)phenoxy]-4H-1,2,6,-thiadiazin-4-one] |  |  |  |  |  |  |  |  | 0% | 0% | 24% | 100% | 100% |  |  |  |  |  |  |
| C[S+]([O-])c1ccc(Oc2nsnc(Cl)c2=O)cc1 (centres unmarked) [Compound 40, 3-chloro-5-[(4-methylsulfinyl)phenoxy]-4H-1,2,6,-thiadiazin-4-one] |  |  |  |  |  |  |  |  | 0% | 0% | 100% | 100% | 100% |  |  |  |  |  |  |
| N#CCc1ccc(Oc2nsnc(Cl)c2=O)cc1 [Compound 46, 3-chloro-5-[(4-cyanomethyl)-phenoxy]4H--1,2,6-thiadiazin-4-one] |  |  |  |  |  |  |  |  | 0% | 0% | 40% | 87% | 100% |  |  |  |  |  |  |
| COc1ccc(Cl)c(Oc2nsnc(Cl)c2=O)c1 [Compound 51, 3-chloro-5-[(2-chloro-5-methoxy)phenoxy]-4H--1,2,6-thiadiazin-4-one] |  |  |  |  |  |  |  |  | 0% | 0% | 31% | 91% | 100% |  |  |  |  |  |  |
| COc1cc(Cl)cc(Oc2nsnc(Cl)c2=O)c1 [Compound 52, 3-chloro-5-[(3-chloro-5-methoxy)phenoxy]-4H--1,2,6-thiadiazin-4-one] |  |  |  |  |  |  |  |  | 0% | 4% | 60% | 100% | 100% |  |  |  |  |  |  |
| O=c1c(Cl)nsnc1Oc1ccc([N+](=O)[O-])cc1Cl [Compound 53, 3-chloro-5-(2-chloro-4-nitrophenoxy)-4H--1,2,6-thiadiazin-4-one] |  |  |  |  |  |  |  |  | 0% | 20% | 82% | 100% | 100% |  |  |  |  |  |  |
| Cc1ccc(Cl)c(Oc2nsnc(Cl)c2=O)c1 [Compound 56, 3-chloro-5-[(2-chloro-5-methyl)phenoxy]-4H--1,2,6-thiadiazin-4-one] |  |  |  |  |  |  |  |  | 100% | 0% | 67% | 100% | 100% |  |  |  |  |  |  |
| COc1cc(Oc2nsnc(Cl)c2=O)cc(OC)c1C(C)=O [Compound 61, 3-[(4-acetyl-3,5-dimethoxy)-phenoxy]-5-chloro-4H--1,2,6-thiadiazin-4-one] |  |  |  |  |  |  |  |  | 0% | 31% | 42% | 100% | 100% |  |  |  |  |  |  |
